# PubChem BioAssay (NCI)
#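 How tested: cells in 96-well plates exposed to compound for 48 hours at five concentrations. GI50 is the concentration that inhibits growth by half. TGI marks complete inhibition of growth.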
# How the values were obtained:
# Test in all cases: NCI tumour cell line growth inhibition, 48 h
# [1] = tested on: A498 renal
# [2] = tested on: ACHN renal
# [3] = tested on: BT-549 breast
# [4] = tested on: KM12 colon
# [5] = tested on: NCI/ADR-RES ovarian
# [6] = tested on: SF-295 CNS
# [7] = tested on: UACC-62 melanoma
# [8] = tested on: LOX IMVI melanoma
SMILES,TGI [1],TGI [2],TGI [3],TGI [4],TGI [5],TGI [6],TGI [7],TGI [8],GI50 [1],GI50 [2],GI50 [4],GI50 [8],GI50 [5],GI50 [6],GI50 [7]
C/C=C1/CN2[C@@H](C3=C[C@@H]4[C@@H]5N(C3=O)c3ccccc3[C@@]53CCN5C/C(=C/C)[C@@H]4C[C@H]53)C[C@@]34c5ccccc5N5C(=O)CC=C([C@H]1C[C@H]23)[C@H]54,14.5 µM,12.1 µM,15.7 µM,17 µM,33.6 µM,16.4 µM,9.1 µM,–,–,–,–,–,–,–,–
COC(=O)c1ccc(CCC2=CC(=O)C(Br)=CC2=O)cc1,36.5 µM,25.1 µM,23.9 µM,32.3 µM,43.8 µM,37.4 µM,31.7 µM,33.3 µM,–,–,–,–,–,–,–
CCCN=C1Nc2ccccc2[C@@H]2N(C)c3ccccc3C(C)C[C@]12C (stereo partly specified),28.6 µM,60.5 µM,–,34.9 µM,52 µM,30.9 µM,33.2 µM,27.7 µM,–,–,–,–,–,–,–
CC(C)=CCC/C(=C\CC/C(=C\CCc1ccoc1)C(=O)O)C(=O)O,> 100 µM,> 100 µM,> 100 µM,> 100 µM,> 100 µM,> 100 µM,> 100 µM,> 100 µM,–,–,–,–,–,–,–
C=C(C)[C@@H]1CC[C@]2(CO)CC[C@]3(C)[C@H](CC[C@@H]4[C@@]5(C)CC[C@H](O)C(C)(C)[C@@H]5CC[C@]43C)[C@@H]12,61.9 µM,25.6 µM,39.8 µM,> 100 µM,> 100 µM,27.8 µM,–,28.4 µM,–,–,–,–,–,–,–
CC(C)(C)OC(=O)NC1CCCC1C(O)(C1=CCCC1)C1=CCCC1 (stereo unspecified),> 100 µM,> 100 µM,> 100 µM,> 100 µM,> 100 µM,–,> 100 µM,> 100 µM,–,–,–,–,–,–,–
Cc1ccc2ccc(=O)oc2c1,> 100 µM,> 100 µM,> 100 µM,> 100 µM,> 100 µM,> 100 µM,> 100 µM,> 100 µM,–,–,–,–,–,–,–
Cc1ccc(S(=O)(=O)NC(=O)NC(Cc2ccccc2)C(=O)O)cc1 (stereo unspecified),–,> 100 µM,> 100 µM,> 100 µM,> 100 µM,> 100 µM,> 100 µM,> 100 µM,–,–,–,–,–,–,–
Cc1c(C#N)c2nnn(-c3ccc([N+](=O)[O-])cc3)c(=O)n2c1-c1ccccc1,29.5 µM,16.4 µM,31.8 µM,20.5 µM,65.5 µM,14 µM,19.4 µM,22 µM,–,–,–,–,–,–,–
Cc1ccc(S(=O)(=O)N(CC(O)c2ccccc2)c2ccccc2F)cc1 (stereo unspecified),36 µM,40.1 µM,32 µM,42.6 µM,35.1 µM,37.9 µM,28 µM,31.5 µM,–,–,–,–,–,–,–
CCOC(O)C(F)(F)F (stereo unspecified),–,> 100 µM,–,> 100 µM,> 100 µM,> 100 µM,–,> 100 µM,–,–,–,–,–,–,–
COc1ccc2c(c1)c(=O)c1c(NCCCN(C)CCCNc3ccc4c(=O)n(CCN(C)C)c(=O)n5c6ccc(OC)cc6c(=O)c3c45)ccc3c(=O)n(CCN(C)C)c(=O)n2c31,3.39 µM,1.42 µM,2.12 µM,1.11 µM,2.26 µM,3.48 µM,0.956 µM,0.161 µM,–,–,–,–,–,–,–
CC(=O)Nc1ccc(N2C(=O)CS(=O)(=O)C2c2cccc(Oc3ccccc3)c2)cc1 (stereo unspecified),–,36.3 µM,32 µM,47.2 µM,48.7 µM,36.7 µM,27.9 µM,35.5 µM,–,–,–,–,–,–,–
O=C(Nc1ccc(-n2cc(-c3ccncc3)c(-c3ccc(O)c(Cl)c3)n2)cc1)c1cc(Cl)cc(Cl)c1,> 32.5 µM,> 32.5 µM,–,> 32.5 µM,> 32.5 µM,5.3 µM,> 32.5 µM,> 32.5 µM,> 32.5 µM,1.51 µM,1.47 µM,0.853 µM,1.92 µM,1.05 µM,3.01 µM
COc1cc(CCNC2=CC(=O)c3cccnc3C2=O)ccc1O,7.6 µM,5.61 µM,2.75 µM,13.2 µM,11.5 µM,2.6 µM,2.7 µM,1.41 µM,–,–,–,–,–,–,–
[N-]=[N+]=C(C(=O)OCC#CCOC(=O)C(=[N+]=[N-])S(=O)(=O)c1ccccc1)S(=O)(=O)c1ccccc1,> 10 µM,> 10 µM,> 10 µM,> 10 µM,> 10 µM,> 10 µM,> 10 µM,> 10 µM,–,–,–,–,–,–,–
N#CN=C1c2ccccc2C(=NC#N)c2cc(CO)ccc21,74.4 µM,74 µM,95.6 µM,> 100 µM,83.6 µM,> 100 µM,–,> 100 µM,–,–,–,–,–,–,–
COc1ccc(OC)c(C(=O)/C=C/c2cc(O)c(O)cc2F)c1,12.5 µM,> 50.3 µM,19.6 µM,13.8 µM,> 89.5 µM,9.25 µM,11.7 µM,16.1 µM,–,–,–,–,–,–,–
NC(CCl)=NC1CN2CCC1CC2 (stereo unspecified),> 100 µM,> 100 µM,> 100 µM,> 100 µM,> 100 µM,> 100 µM,> 100 µM,> 100 µM,–,–,–,–,–,–,–
CN(C)Cc1cc(C(C)(C)C)cc(CNC2CCCCC2)c1O,> 100 µM,> 100 µM,> 100 µM,> 100 µM,69.4 µM,57.1 µM,> 100 µM,76.5 µM,–,–,–,–,–,–,–
Cc1ccc(C(=O)Cc2nc3ncccc3[nH]c2=O)cc1,> 100 µM,69.3 µM,92.5 µM,> 100 µM,> 100 µM,> 100 µM,> 100 µM,–,–,–,–,–,–,–,–
O=c1[nH]nc(-c2ccc([N+](=O)[O-])cc2)n1/N=C/c1ccc([N+](=O)[O-])cc1,> 100 µM,> 100 µM,> 100 µM,> 100 µM,> 100 µM,> 100 µM,> 100 µM,34.4 µM,–,–,–,–,–,–,–
COc1ccc(C[C@H]2NC(=O)/C=C/C[C@@H]([C@H](C)[C@H]3O[C@@H]3c3ccccc3)OC(=O)[C@H](CC(C)C)OC(=O)[C@H](C)CNC2=O)cc1,8.37e-05 µM,> 0.0001 µM,–,> 0.0001 µM,> 0.0001 µM,> 6.84e-05 µM,3.38e-05 µM,> 0.0001 µM,–,–,–,–,–,–,–
CC(=O)c1cc2c(s1)C(=O)c1scc(C(C)=O)c1C2=O,4 µM,0.828 µM,2.68 µM,3.39 µM,0.737 µM,2.15 µM,0.692 µM,0.224 µM,–,–,–,–,–,–,–
